Test results: US20250222120A1, “SYNTHESIS OF NOVEL SMALL MOLECULE CARM1 DEGRADERS, COMPOUNDS FORMED THEREBY, AND PHARMACEUTICAL COMPOSITIONS CONTAINING THEM” (Wisconsin Alumni Research Foundation, priority 2024, published 2025)

What was measured:
Assay type in all cases: cell-based
CARM1 [1] = target: T1, CARM1 (Homo sapiens, UniProt Q86X55); assay: CARM1 degradation by western blot in MDA-MB-231 cells; details: triple-negative MDA-MB-231 cells, 0.5 μM, after 24 or 48 h
T1 sequence (Q86X55 1-608): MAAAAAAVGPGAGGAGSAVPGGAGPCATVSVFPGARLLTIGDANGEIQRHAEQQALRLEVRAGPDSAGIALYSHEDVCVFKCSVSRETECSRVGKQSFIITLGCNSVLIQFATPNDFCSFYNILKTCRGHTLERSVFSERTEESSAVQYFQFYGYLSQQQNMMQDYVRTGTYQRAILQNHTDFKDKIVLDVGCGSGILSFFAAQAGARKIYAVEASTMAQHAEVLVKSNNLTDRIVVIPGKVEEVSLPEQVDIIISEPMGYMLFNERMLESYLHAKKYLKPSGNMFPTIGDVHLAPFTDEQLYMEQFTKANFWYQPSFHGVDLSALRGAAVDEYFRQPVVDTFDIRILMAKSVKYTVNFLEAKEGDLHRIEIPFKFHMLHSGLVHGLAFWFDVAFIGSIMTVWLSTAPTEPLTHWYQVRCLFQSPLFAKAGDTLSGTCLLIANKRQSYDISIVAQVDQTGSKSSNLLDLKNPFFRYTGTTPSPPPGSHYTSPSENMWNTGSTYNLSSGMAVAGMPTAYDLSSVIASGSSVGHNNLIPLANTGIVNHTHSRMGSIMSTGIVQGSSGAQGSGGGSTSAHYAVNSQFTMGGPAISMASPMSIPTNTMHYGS
From the text: (§1) FIGS. 7A-7F. […] Cell lysates were collected and CARM1, methyl-BAF155, total BAF155, methyl-PABP1, and total PABP1 levels were detected by Western blot. […] Cell lysates were collected and CARM1, methyl-BAF155, total BAF155 levels were detected by Western blot. […] Cell proliferation rate normalized to day 0 was plotted. […] Migrated cells were stained with 1% crystal violet and the percentage of migrated cells were plotted. Data mean±s.d. ***. P≤0.001.
(§2) Western Blot Assay. Cells were harvested and washed with Dulbecco's phosphate-buffered saline (PBS), then lysed with 1×RIPA lysis buffer (50 mM Tris pH 7.5, 150 mM NaCl, 1% NP-40, 0.5% sodium deoxycholate, and 0.1% sodium dodecyl sulfate) supplemented with 1 mM phenylmethylsulfonyl fluoride, 10 μg/mL aprotinin, 1 μM leupeptin, and 10 μg/mL pepstatin on ice for 20 min. The supernatant was collected after spinning down at 15000 RPM at 4 degrees Celsius for 10 min. The concentration of whole lysates was quantified using a Bradford assay. 50-75 μg of cell lysates was boiled in 4× Laemmli Loading Dye and boiled at 100 degrees Celsius for 10 min. 25 μg were run in 8% SDS-PAGE gels and transferred to nitrocellulose membranes. Blots were blocked in 5% skim milk in PBST [PBS and 0.1% Tween 20] for 45 min, then incubated with primary antibodies at 4 degrees Celsius overnight. […]

BAF155 me2a = BAF155 me2a level in BT474 cells, western blot; details: 0.5 μM, after 48 h
From the text: as §1, §2

MDA-MB-231 cells = assay: Cell proliferation assay, MDA-MB-231 cells; details: 0.5 μM, 7 days
Protocol: Cell Proliferation Assay. Cell proliferation was measured by direct cell count via high contrast brightfield microscopy. MDA-MB-231 cells (3×10^3/well) were seeded in 100 μL of DMEM into the wells of a 96-well plate. Cells were treated with either DMSO, TP-064, or 3b and refreshed every two days. The plate was imaged daily for 7 days using the High-Contrast Brightfield Kit for Label-Free Cell Counting (BioTek) on the BioTek Imager.

CARM1 [2] = target: T1, CARM1; assay: CARM1 degradation by western blot in MCF7 cells; set-up: Cell lysates were collected and the CARM1 levels were detected by western blots; endogenous in cells; host or cells: MCF7

In the case of `CNCCN1CCC(c2cc(CN(C)C(=O)c3cccc(Oc4ccc(OCC(=O)N5CCC(CN6CCC(CN7CCN(CC(=O)N[C@H](C(=O)N8C[C@H](O)C[C@H]8C(=O)N[C@@H](C)c8ccc(-c9scnc9C)cc8)C(C)(C)C)CC7)CC6)CC5)cc4)c3)ccn2)CC1` [Compound 3b, (2S,4R)-1-((S)-3,3-dimethyl-2-(2-(4-((1-((1-(2-(4-(3-(methyl((2-(1-(2-(methylamino)ethyl)piperidin-4-yl)pyridin-4-yl)methyl)carbamoyl)phenoxy)phenoxy)acetyl)piperidin-4-yl)methyl)piperidin-4-yl)methyl)piperazin-1-yl)acetamido)butanoyl)-4-hydroxy-N—((S)-1-(4-(4-methylthiazol-5-yl)phenyl)ethyl)pyrrolidine-2-carboxamide], the CARM1 degradation (CARM1 [1]) is reported as “effectively degraded”, the “BAF155 me2a level” value (BAF155 me2a) is reported as “decrease of BAF155 me2a level was observed” and the Cell proliferation (MDA-MB-231 cells) is reported as “not to inhibit cell proliferation”. For the same compound, the Dmax (CARM1 [2]; MCF7, read-out: Dmax of CARM1 degradation, MCF7 cells, 24 h, western blot, three independent experiments) was > 95%, the “Time after exposure at which CARM1 degradation was observed” value (CARM1 [2]; MCF7 cells, 0.5 μM, time course) was 2 h and the “CARM1 degradation over time course” value (CARM1 [2]; MCF7 cells, 0.5 μM, up to 48 h) was “degradation sustained and further maximized over the course of 48 h”. The “CARM1 degradation activity, rigid linker compared with 2e” value (CARM1 [2]; MCF7 cells, 0.1, 0.5, 1.0 and 10.0 μM, 24 hours, compared with 2e at 0.5 μM) was “significantly improved CARM1 degradation activity”.
